Measurements reported in patent US20220389013A1, “PYRIDOPYRIMIDINONE COMPOUNDS AND APPLICATIONS THEREOF” (BeBetter Med Inc., priority 2020, published 2022).
Where two headings read alike, the source gives them in different places.

Tests used:
[1] = Pharmacokinetic (PK) experiment in rats by gavage; format: in vivo; details: rat, plasma, po, male SD rats, 20 mg/kg; for AUC(0-t): read-out: AUC0-24
H358 xenograft tumor [2] = assay: H358 human non-small cell lung cancer subcutaneous mouse xenograft model, anticancer activity; format: in vivo, BALB/c nude mice; details: 100 mg/kg, po, qd, 26 days
Method: (§1) In this experiment, the anticancer activities of compounds 73-1 and 90-1 in the subcutaneous tumor model of H358 human non-small cell lung cancer xenograft mice, and the dose-response relationship of compound 73-1 in inhibiting the growth of H358 xenograft tumors were investigated. […] When H358 cells were cultured to a sufficient number, cells were collected. […] Vernier calipers were used to measure the size of the tumor. The formula for calculating the tumor volume is: tumor volume=(length×width^2)/2, and the formula for calculating the relative tumor proliferation rate T/C value is: T/C (%)=100×ΔT/ΔC (ΔT>0) or T/T (%)=100×ΔT/T0 (ΔT<0). ΔT is the difference of tumor volume in the treatment group, ΔC is the difference of tumor volume in the vehicle control group, and T0 is the tumor volume in the treatment group before administration.
The dosage of the all groups, except the vehicle control group, was 100 mg/kg, 10 mL/kg orally administered by gavage, once a day. […] All the groups were administered continuously for 26 days.

Caco-2 cell = Caco-2 cell transmembrane transport experiment; details: 10 μM, pH 7.4, 37° C., 90 min
From the text: (§3) In this experiment, a monolayer of Caco-2 cells was used to assess drug penetration. […] The apparent permeability coefficient from apical to basolateral (Papp A-B) and the basolateral to apical permeability coefficient (Papp B-A) of compounds represent the ability of the compound to be transported in both directions, respectively.
(§4) Apparent permeability coefficient (Papp)=(the volume of the receiver chamber/the filter surface area×culture time))×(the drug concentration of receiver chamber at the end of culture/(the drug concentration of donor chamber at the initial culture×dilution factor)
(§5) In this experiment, Millipore cell culture plates (PSHT 010 R5): membrane area=0.7 cm^2, recipient side volume=0.8 mL (A-to-B) or 0.4 mL (B-to-A), incubation time=90 minutes.

[3] = Caco-2 cell transmembrane transport experiment; details: human; for Papp B→A at 90 min, 10 μM: basolateral to apical
From the text: as §3, §4, §5

[4] = tested on: MIA Paca2 T2 xenograft tumor; assay: MIA Paca2 T2 human pancreatic cancer xenograft mouse subcutaneous model; details: for effect on tumor (in words): 28 days oral, 73-1 50 mg/kg bid, AMG510 100 mg/kg qd
Method: MIAPaca2 cells were cultured to sufficient numbers in DMEM containing 10% fetal bovine serum and 2.5% horse serum, then harvested. 5 million cells suspended in 0.1 mL of serum-free medium and Matrigel (1:1, v/v) were injected subcutaneously into the right flank area of each mouse, carefully avoiding blood vessels and serially passaged 2 times in animals. The size of the tumor was measured using a vernier caliper, and the method for calculating the tumor volume and T/C value was the same as above. […] The compounds were respectively dissolved in 30% sulfobutyl-β-cyclodextrin (SBE-β-CD) and 1.5 equivalent of 1 M HCl (pH 4-5) at the corresponding concentrations. 10 mL/kg was orally administered continuously by gavage for 28 days.

[5] = tested on: non-small cell lung cancer (NSCLC); details: cited from earlier work
mouse tumors = details: mouse experiments, alone or combined; cited from earlier work
H358 (KRAS G12C) = assay: Tumor cell proliferation inhibition assay (CellTiter-Glo), H358; format: cell-based, Human; details: Homo sapiens, NCI-H358, 72 h, 10% fetal bovine serum
Summary of the method: (§2)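 Growth was read as ATP by CellTiter-Glo luminescence, with inhibition normalised to DMSO (max) and medium-only (min) wells. IC50 came from sigmoidal dose-response fits.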

H358 xenograft tumor [6] = assay: H358 xenograft model, dose-response of compound 73-1; format: in vivo, BALB/c nude mice; details: po, qd, 28 days
Method: as §1
In the dose-response study of compound 73-1 inhibiting the growth of H358 xenograft tumors, when the H358 tumor volume reached an average of about 183 mm^3, the animals were respectively divided into different treatment groups, including vehicle (30% sulfobutyl-β-Cyclodextrin) control group, compound 73-1 orally administered group with doses of 12.5 mg/kg, 25 mg/kg, 50 mg/kg, and 100 mg/kg (n=8/group), administered once every day. […] All the groups were administered continuously for 28 days with 10 mL/kg oral administration.

MIA-Paca2 (KRAS G12C) = assay: Tumor cell proliferation inhibition assay (CellTiter-Glo), MIA-Paca2; format: cell-based, Human; details: 72 hours, 10% fetal bovine serum
Summary of the method: as §2

H23 (KRAS G12C) = assay: Tumor cell proliferation inhibition assay (CellTiter-Glo), H23; format: cell-based, Human; details: Homo sapiens, 72 h, 10% fetal bovine serum
Summary of the method: as §2

KRAS-G12C/SOS1 = target: T1, KRAS-G12C/SOS1 (Homo sapiens, UniProt P01116, G12C); assay: HTRF KRAS-G12C/SOS1 binding assay; details: 2 hours room temperature
T1 construct: purchased Cisbio #63ADK000CB16PEG
Method: 2) Diluted the compound to be tested with diluent into 10× stock solution, starting from a concentration of 10000 nM, diluting in 4-fold gradient and a total of 6 concentration gradients.
After incubated at room temperature for 15 minutes, added pre-mixed 5 uL of anti-Tag1-Tb^3+ and 5 uL of anti-Tag2-XL665. Sealed the plate and incubated at room temperature for 2 hours.
Data were processed by using Graphpad prism software.

[7] = Caco-2, pH 7.4, Papp A-B Sample_01, 10 μM, pH 7.4, 37° C., 90 min, apical to basolateral
[8] = Caco-2, pH 7.4, Papp A-B Sample_02, 10 μM, pH 7.4, 37° C., 90 min, apical to basolateral
[9] = Caco-2, pH 7.4, Papp A-B mean value, 10 μM, pH 7.4, 37° C., 90 min, apical to basolateral
[10] = Caco-2, pH 7.4, Papp B-A Sample_01, 10 μM, pH 7.4, 37° C., 90 min
[11] = Caco-2, pH 7.4, Papp B-A Sample_02, 10 μM, pH 7.4, 37° C., 90 min
[12] = Caco-2, pH 7.4, Papp B-A mean value, 10 μM, pH 7.4, 37° C., 90 min
[13] = 13 evaluable patients, highest dose of 960 mg

T1 sequence (P01116 1-188 isoform P01116-2 G12C): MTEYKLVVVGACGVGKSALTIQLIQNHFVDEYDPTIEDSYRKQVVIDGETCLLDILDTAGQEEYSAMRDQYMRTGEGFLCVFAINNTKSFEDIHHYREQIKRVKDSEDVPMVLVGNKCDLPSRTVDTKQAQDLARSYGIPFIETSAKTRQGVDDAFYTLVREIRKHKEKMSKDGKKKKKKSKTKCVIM

Compound | AUC(0-inf) [1] [ng·h/mL] | Cmax [1] [ng/mL] | Tmax [1] [h] | half-life [1] [h] | AUC(0-t) [1] [ng·h/mL] | Changes of body weight (%) (H358 xenograft tumor [2]) | effect on tumor (in words) (H358 xenograft tumor [2]) | tumor suppressor T/C value (%) (H358 xenograft tumor [2]) | Papp A→B at 90 min, 10 μM [3, 7] [×10⁻⁶ cm/s] | Papp A→B at 90 min, 10 μM [3, 8] [×10⁻⁶ cm/s] | Papp A→B at 90 min, 10 μM [3, 9] [×10⁻⁶ cm/s] | Papp B→A at 90 min, 10 μM [3, 10] [×10⁻⁶ cm/s] | Papp B→A at 90 min, 10 μM [3, 11] [×10⁻⁶ cm/s] | Papp B→A at 90 min, 10 μM [3, 12] [×10⁻⁶ cm/s] | effect on tumor (in words) [4] | mice whose tumor completely disappeared (mouse tumors) [%] | other results
C=CC(=O)N1CCN(c2nc(=O)n(-c3c(C)ccnc3C(C)C)c3nc(-c4c(O)cccc4F)c(F)cc23)[C@@H](C)C1 (atropisomer, axis not shown) [AMG510, reference compound] | 3430 | 3250 | 0.33 | 6.76 | 3370 | 16.4 | shrink the tumor | −93.8 | 5.83 | 4.94 | 5.39 | 27.9 | 39.1 | 33.5 | shrink the tumor | 10 | efflux rate Papp(B-A)/Papp(A-B) (Caco-2 cell): 6.22; Changes of body weight (%) ([4]; 100 mg/kg, po, qd, 28 days): 13.8%; DCR [5, 13]: 100%; ORR [5, 13]: 54%; partial response (PR) [5, 13]: 54%; disease control rate (DCR) ([5]; 23 evaluable NSCLC patients): 96%; objective response rate (ORR) ([5]; 23 evaluable NSCLC patients): 48%; partial response (PR) ([5]; 23 evaluable NSCLC patients): 48%; progressive disease (PD) ([5]; 23 evaluable NSCLC patients): 4%; dose-limiting toxicity and adverse reactions above grade IV ([5]; phase I patients): No dose-limiting toxicity (DLT) and drug-related adverse reactions above grade IV were found; tolerability (in words) ([5]; phase I patients): well tolerated
C=CC(=O)N1CCN(c2nc(=O)n(-c3c(C)ccnc3C(C)C)c3nc(-c4c(F)ccc5ccoc45)c(Cl)cc23)[C@@H](C)C1 (single isomer, unassigned) [Compound 73-1] | 4320 | 1750 | 0.67 | 3.23 | 4300 | 10.1 | cause the tumor to disappear completely | −100.0 | 16 | 20.8 | 18.4 | 17.2 | 24 | 20.6 | cause the tumor to disappear completely | – | IC50 (H358 (KRAS G12C)): < 10 nM; efflux ratio at 90 min, 10 μM ([3]; Caco-2, pH 7.4): 1.12; Papp A→B at 90 min, 10 μM ([3]; Caco-2, pH 7.4, apparent permeability coefficient Papp A-B, Caco-2): > 10 ×10⁻⁶ cm/s; Antitumor activity T/C value (%) (H358 xenograft tumor [6]; 12.5 mg/kg): −68.5%; Changes of body weight (%) (H358 xenograft tumor [6]; 12.5 mg/kg): −0.2%; Antitumor activity T/C value (%) (H358 xenograft tumor [6]; 25 mg/kg): −74.0%; Changes of body weight (%) (H358 xenograft tumor [6]; 25 mg/kg): −0.1%; Antitumor activity T/C value (%) (H358 xenograft tumor [6]; 50 mg/kg): −93.5%; Changes of body weight (%) (H358 xenograft tumor [6]; 50 mg/kg): 2.2%; Antitumor activity T/C value (%) (H358 xenograft tumor [6]; 100 mg/kg): −96.6%; Changes of body weight (%) (H358 xenograft tumor [6]; 100 mg/kg): 1.9%; clinical symptoms and body weight (in words) (H358 xenograft tumor [6]; 12.5, 25, 50 and 100 mg/kg, versus vehicle control): no significant clinical symptoms and no significant changes in body weight; effect on tumor growth (in words) (H358 xenograft tumor [6]; 12.5-100 mg/kg): inhibited the growth of H358 tumor in a dose-dependent manner and could cause partial disappearance of tumor; tolerability (in words) (H358 xenograft tumor [6]; 12.5-100 mg/kg): well tolerated; IC50 (MIA-Paca2 (KRAS G12C)): < 10 nM; Antitumor activity T/C value (%) ([4]; 50 mg/kg, po, bid, 28 days): −100%; Changes of body weight (%) ([4]; 50 mg/kg, po, bid, 28 days): 10.2%; IC50 (H23 (KRAS G12C)): < 10 nM; IC50 (KRAS-G12C/SOS1): < 50 nM
pembrolizumab: PD-1 antibody | – | – | – | – | – | – | – | – | – | – | – | – | – | – | – | 10 | –
